Tests used:
[1] = target: isolated recombinant JAK2 kinase domain (Homo sapiens (Human), UniProt O60674); test: JAK2 enzyme assay (Caliper LabChip, peptide phosphorylation); type: biochemical; conditions: 25 μM ATP
[2] = tested on: JAK1-dependent STAT6 phosphorylation downstream of IL-13 stimulation in BEAS-2B human bronchial epithelial cells; test: JAK1 pathway assay in BEAS-2B cells (IL-13-pSTAT6, MSD); type: cell-based; conditions: read-out: IL13-pSTAT6 EC50 (uM)_BEAS-2B
Outline: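 BEAS-2B: 1 h, complete growth medium, 100,000 cells/well. TF-1: 30 min, serum-free OptiMEM after overnight GM-CSF starvation, 300,000 cells/well. EC50 reported.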

[3] = target: isolated recombinant JAK1 kinase domain (Homo sapiens (Human), UniProt P23458); test: JAK1 enzyme assay (Caliper LabChip, peptide phosphorylation); type: biochemical; conditions: isolated recombinant JAK1 kinase domain, 25 μM ATP
Chain of isolated recombinant JAK1 kinase domain (P23458 875-1153): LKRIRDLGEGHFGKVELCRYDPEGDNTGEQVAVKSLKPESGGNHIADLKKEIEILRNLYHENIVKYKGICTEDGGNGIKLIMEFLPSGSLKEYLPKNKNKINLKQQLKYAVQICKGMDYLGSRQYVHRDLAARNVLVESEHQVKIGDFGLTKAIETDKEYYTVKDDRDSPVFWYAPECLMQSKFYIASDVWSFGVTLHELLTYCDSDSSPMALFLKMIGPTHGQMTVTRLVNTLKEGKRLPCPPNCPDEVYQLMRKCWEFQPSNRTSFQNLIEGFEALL

Chain of isolated recombinant JAK2 kinase domain (O60674 849-1124): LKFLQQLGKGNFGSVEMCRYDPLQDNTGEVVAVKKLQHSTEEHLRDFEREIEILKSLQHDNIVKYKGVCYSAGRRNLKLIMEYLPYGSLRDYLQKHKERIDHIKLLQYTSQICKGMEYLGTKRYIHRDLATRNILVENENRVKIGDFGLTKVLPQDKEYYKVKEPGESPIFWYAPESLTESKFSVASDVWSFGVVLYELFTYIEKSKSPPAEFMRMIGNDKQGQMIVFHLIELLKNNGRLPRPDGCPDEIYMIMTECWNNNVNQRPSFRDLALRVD

SMILES | Ki [1] | Ki [3] | EC50 [2]
O=C(Nc1cn(CC(=O)N2CCC(N3CC4CC(C3)O4)CC2)nc1-c1cc(Cl)ccc1OC(F)F)c1cnn2cccnc12 [Example 450, N-(1-(2-(4-(6-oxa-3-aza-bicyclo[3.1.1]heptan-3-yl)piperidin-1-yl)-2-oxoethyl)-3-(5-chloro-2-(difluoromethoxy)phenyl)-1H-pyrazol-4-yl)pyrazolo[1,5-a]pyrimidine-3-carboxamide] | 0.97 nM | 0.37 nM | 0.0126 µM
CN(C)C(=O)[C@@H]1CCCN1C1CCN(C(=O)Cn2cc(NC(=O)c3cnn4cccnc34)c(-c3cc(Cl)ccc3OC(F)F)n2)CC1 [Example 424, N-(3-(5-chloro-2-(difluoromethoxy)phenyl)-1-(2-(4-((S)-2-(dimethylcarbamoyl)pyrrolidin-1-yl)piperidin-1-yl)-2-oxoethyl)-1H-pyrazol-4-yl)pyrazolo[1,5-a]pyrimidine-3-carboxamide] | 3.44 nM | 1.12 nM | 0.0987 µM
CN(C)C(=O)[C@@H]1CCCN1CC1CCN(C(=O)Cn2cc(NC(=O)c3cnn4cccnc34)c(-c3cc(Cl)ccc3OC(F)F)n2)CC1 [Example 423, N-(3-(5-chloro-2-(difluoromethoxy)phenyl)-1-(2-(4-(((S)-2-(dimethylcarbamoyl)pyrrolidin-1-yl)methyl)piperidin-1-yl)-2-oxoethyl)-1H-pyrazol-4-yl)pyrazolo[1,5-a]pyrimidine-3-carboxamide] | 2.79 nM | 0.73 nM | 0.0312 µM
COC(=O)CCN(C)C1CCN(C(=O)Cn2cc(NC(=O)c3cnn4cccnc34)c(-c3cc(Cl)ccc3OC(F)F)n2)CC1 [Example 345, methyl 3-[[1-(2-[3-[5-chloro-2-(difluoromethoxy)phenyl]-4-[pyrazolo[1,5-a]pyrimidine-3-amido]-1H-pyrazol-1-yl]acetyl)piperidin-4-yl](methyl)amino]propanoate] | 1.47 nM | 0.59 nM | 0.0166 µM
CCOC(=O)C1CCN(CCN2CCN(C(=O)Cn3cc(NC(=O)c4cnn5cccnc45)c(-c4cc(Cl)ccc4OC(F)F)n3)CC2)CC1 [Example 334, ethyl 1-[2-[4-(2-[3-[5-chloro-2-(difluoromethoxy)phenyl]-4-[pyrazolo[1,5-a]pyrimidine-3-amido]-1H-pyrazol-1-yl]acetyl)piperazin-1-yl]ethyl]piperidine-4-carboxylate] | 1.81 nM | 0.69 nM | 0.0061 µM
CN(CC1OCCO1)C1CCN(C(=O)Cn2cc(NC(=O)c3cnn4cccnc34)c(-c3cc(Cl)ccc3OC(F)F)n2)CC1 [Example 433, N-(1-(2-(4-(((1,3-dioxolan-2-yl)methyl)(methyl)amino)piperidin-1-yl)-2-oxoethyl)-3-(5-chloro-2-(difluoromethoxy)phenyl)-1H-pyrazol-4-yl)pyrazolo[1,5-a]pyrimidine-3-carboxamide] | 1.16 nM | 0.42 nM | 0.036 µM
CN1CCN(CC2CCN(C(=O)Cn3cc(NC(=O)c4cnn5cccnc45)c(-c4cc(Cl)ccc4OC(F)F)n3)CC2)CC1 [Example 350, N-[3-[5-chloro-2-(difluoromethoxy)phenyl]-1-(2-[4-[(4-methylpiperazin-1-yl)methyl]piperidin-1-yl]-2-oxoethyl)-1H-pyrazol-4-yl]pyrazolo[1,5-a]pyrimidine-3-carboxamide] | 1.42 nM | 0.43 nM | 0.0094 µM
CC(C)(C)OC(=O)N1CC[C@@H](O)[C@H](n2cc(NC(=O)c3cnn4cccnc34)c(-c3cc(Cl)ccc3OC(F)F)n2)C1 (single isomer, unassigned) [Example 356] | 2.37 nM | 2.64 nM | 0.0396 µM
O=C(Nc1cn(CC(=O)N2CCC(N3CCCOCC3)CC2)nc1-c1cc(Cl)ccc1OC(F)F)c1cnn2cccnc12 [Example 441, N-(1-(2-(4-(1,4-oxazepan-4-yl)piperidin-1-yl)-2-oxoethyl)-3-(5-chloro-2-(difluoromethoxy)phenyl)-1H-pyrazol-4-yl)pyrazolo[1,5-a]pyrimidine-3-carboxamide] | 1.48 nM | 0.52 nM | 0.0084 µM
O=C(Nc1cn([C@H]2CCNC[C@@H]2O)nc1-c1cc(Cl)ccc1OC(F)F)c1cnn2cccnc12 [Example 359, N-[3-[5-chloro-2-(difluoromethoxy)phenyl]-1-[(3S,4S)-3-hydroxypiperidin-4-yl]-1H-pyrazol-4-yl]pyrazolo[1,5-a]pyrimidine-3-carboxamide] | 2.7 nM | 3.85 nM | 0.0309 µM
CN(C)CCN1CCN(C(=O)Cn2cc(NC(=O)c3cnn4cccnc34)c(-c3cc(Cl)ccc3OC(F)F)n2)CC1 [Example 379, N-[3-[5-chloro-2-(difluoromethoxy)phenyl]-1-(2-[4-[2-(dimethylamino)ethyl]piperazin-1-yl]-2-oxoethyl)-1H-pyrazol-4-yl]pyrazolo[1,5-a]pyrimidine-3-carboxamide] | 2.33 nM | 0.86 nM | 0.0755 µM
CN1CCC(COC(=O)C2(C)CCN(C(=O)Cn3cc(NC(=O)c4cnn5cccnc45)c(-c4cc(Cl)ccc4OC(F)F)n3)CC2)CC1 [Example 389, (1-methylpiperidin-4-yl)methyl 1-(2-[3-[5-chloro-2-(difluoromethoxy)phenyl]-4-[pyrazolo[1,5-a]pyrimidine-3-amido]-1H-pyrazol-1-yl]acetyl)-4-methylpiperidine-4-carboxylate] | 2.16 nM | 0.4 nM | 0.0175 µM
CC(C)CN1CCN(C(=O)Cn2cc(NC(=O)c3cnn4cccnc34)c(-c3cc(Cl)ccc3OC(F)F)n2)CC1 [Example 317, N-[3-[5-chloro-2-(difluoromethoxy)phenyl]-1-[2-[4-(2-methylpropyl)piperazin-1-yl]-2-oxoethyl]-1H-pyrazol-4-yl]pyrazolo[1,5-a]pyrimidine-3-carboxamide] | 1.16 nM | 0.64 nM | 0.0229 µM

The next lines start with results.

Ki [1] | Ki [3] | SMILES | EC50 [2]
0.33 nM | 0.68 nM | O=C1CCC(Cn2cc(NC(=O)c3cnn4cccnc34)c(-c3cc(Cl)ccc3OC(F)F)n2)O1 (stereo not drawn) [Example 323] | 0.0209 µM
0.86 nM | 0.38 nM | N#CC1CCN(C2CCN(C(=O)Cn3cc(NC(=O)c4cnn5cccnc45)c(-c4cc(Cl)ccc4OC(F)F)n3)CC2)CC1 [Example 462, N-(3-(5-chloro-2-(difluoromethoxy)phenyl)-1-(2-(4-cyano-1,4′-bipiperidin-1′-yl)-2-oxoethyl)-1H-pyrazol-4-yl)pyrazolo[1,5-a]pyrimidine-3-carboxamide] | 0.0108 µM
0.88 nM | 0.36 nM | CN1CCN(C2CCN(C(=O)Cn3cc(NC(=O)c4cnn5cccnc45)c(-c4cc(Cl)ccc4OC(F)F)n3)CC2)C(=O)C1 [Example 448, N-(3-(5-chloro-2-(difluoromethoxy)phenyl)-1-(2-(4-(4-methyl-2-oxopiperazin-1-yl)piperidin-1-yl)-2-oxoethyl)-1H-pyrazol-4-yl)pyrazolo[1,5-a]pyrimidine-3-carboxamide] | 0.0425 µM
0.2 nM | 0.25 nM | O=C(Nc1cn(CCNCc2cccc(O)c2)nc1-c1cc(Cl)ccc1OC(F)F)c1cnn2cccnc12 [Example 327, N-[3-[5-chloro-2-(difluoromethoxy)phenyl]-1-(2-[[(3-hydroxyphenyl)methyl]amino]ethyl)-1H-pyrazol-4-yl]pyrazolo[1,5-a]pyrimidine-3-carboxamide] | 0.0077 µM
0.68 nM | 0.3 nM | O=C(Nc1cn(CC(=O)N2CCN(Cc3ncco3)CC2)nc1-c1cc(Cl)ccc1OC(F)F)c1cnn2cccnc12 [Example 380, N-[3-[5-chloro-2-(difluoromethoxy)phenyl]-1-[2-[4-(1,3-oxazol-2-ylmethyl)piperazin-1-yl]-2-oxoethyl]-1H-pyrazol-4-yl]pyrazolo[1,5-a]pyrimidine-3-carboxamide] | 0.0481 µM
0.89 nM | 0.76 nM | O=C(Nc1cn(CC(=O)N2C[C@@H]3CCN[C@@H]3C2)nc1-c1cc(Cl)ccc1OC(F)F)c1cnn2cccnc12 [Example 444, N-(3-(5-chloro-2-(difluoromethoxy)phenyl)-1-(2-((3aS,6aS)-hexahydropyrrolo[3,4-b]pyrrol-5(1H)-yl)-2-oxoethyl)-1H-pyrazol-4-yl)pyrazolo[1,5-a]pyrimidine-3-carboxamide] | 0.054 µM
1.06 nM | 1.22 nM | CC(C)(C)OC(=O)N1CC[C@H](O)[C@@H](n2cc(NC(=O)c3cnn4cccnc34)c(-c3cc(Cl)ccc3OC(F)F)n2)C1 (single isomer, unassigned) [Example 357] | 0.0216 µM
0.88 nM | 0.38 nM | O=C(Nc1cn(CC(=O)N2CCN(C3CCOC3)CC2)nc1-c1cc(Cl)ccc1OC(F)F)c1cnn2cccnc12 (stereo not drawn) [Example 437, N-(3-(5-chloro-2-(difluoromethoxy)phenyl)-1-(2-oxo-2-(4-(tetrahydrofuran-3-yl)piperazin-1-yl)ethyl)-1H-pyrazol-4-yl)pyrazolo[1,5-a]pyrimidine-3-carboxamide] | 0.0126 µM
0.65 nM | 0.71 nM | O=C(Nc1cn(Cc2cn(C3CCNCC3)nn2)nc1-c1cc(Cl)ccc1OC(F)F)c1cnn2cccnc12 [Example 452, N-(3-(5-chloro-2-(difluoromethoxy)phenyl)-1-((1-(piperidin-4-yl)-1H-1,2,3-triazol-4-yl)methyl)-1H-pyrazol-4-yl)pyrazolo[1,5-a]pyrimidine-3-carboxamide] | 0.0809 µM
0.99 nM | 0.48 nM | O=C(Nc1cn(CC(=O)N2CCN(C3CCOCC3)CC2)nc1-c1cc(Cl)ccc1OC(F)F)c1cnn2cccnc12 [Example 429, N-(3-(5-chloro-2-(difluoromethoxy)phenyl)-1-(2-oxo-2-(4-(tetrahydro-2H-pyran-4-yl)piperazin-1-yl)ethyl)-1H-pyrazol-4-yl)pyrazolo[1,5-a]pyrimidine-3-carboxamide] | 0.0074 µM
